Results as given in patent US20260297134A1, “CYCLIC PEPTIDES AS PET IMAGING AGENTS OF GRANZYME B” (Merck Sharp & Dohme LLC, priority 2023, published 2026).
Bridge positions count the residues as written; N and C are the ends. Square brackets hold non-standard residues; d marks the D form. Peptide text beside a SMILES is read from it. * marks the point of attachment. NMeF = CN[C@@H](Cc1ccccc1)C(=O)O; Propionyl = CCC(=O)*

Target: human Granzyme B (hGranzyme B) (Homo sapiens, UniProt P10144)
Test: Surface Plasmon Resonance (SPR) binding to human Granzyme B
Conditions: Table 8, 25° C.
Protocol: All reagents and solvents were purchased from commercial sources and used “as is” unless otherwise noted. Reaction progress and synthetic intermediate analysis were assessed by LCMS (UV detection with ESI, APCI, or other mass detection) when applicable using a MeCN/water gradient with either TFA, formic acid, or NH4HCO3 modifier. Silica gel and reverse-phase flash column chromatography were conducted with commercially available pre-packed columns. Reverse-phase preparative HPLC purification was performed on preparative HPLC instruments with UV and MS detection using a MeCN/water gradient with either TFA, formic acid, or NH4OH modifier. Unless otherwise noted, all KD data presented in tables refers to the surface plasmon resonance assay that is described in the Biological Assay section.
The kinetics of test peptide binding to human Granzyme B (hGranzyme B) was determined by SPR. All experiments were performed at 25° C. using the Biacore 8k+ instrument (Cytiva, Marlborough, MA). The Biacore 8k+ Insight Evaluation Software Version 3.0 was used to fit the data with a 1:1 binding model to determine the association rate constant ka (M^−1s^−1, where “M” equals molar and “s” equals seconds) and the dissociation rate constant kd (s^−1). These rate constants were used to calculate the equilibrium dissociation constant, KD (M)=kd/ka. To measure the binding kinetics of peptides of interest, surfaces were prepared by a capture method to a Series S Streptavidin (SA) chip using a 1×HBS-EP+ running buffer (Cytiva). hGranzyme B was diluted to 10 μg/mL in 1×HBS-EP+ and flowed over spot 2 of each flow cell on the chip at a flow rate of 10 μl/min for 20 s to achieve a level of capture of ~1100 RU. An unmodified spot 1 of each flow cell was used as a matrix binding control or reference surface. Binding kinetics were measured using single cycle kinetics at 25° C. by injecting 5 concentrations with 3-fold serial dilutions of test peptides from […] to 1 μM. Compound dilutions were performed manually in a running buffer containing 1×HBS-EP+(Cytiva), and a final concentration of 2% DMSO. The interaction analyses over hGranzyme B, were performed using a 120 s association time and a 900 s dissociation time. All experiments were conducted at a flow rate of […] with a data collection rate of 10 Hz.
Peptide dilution series included 2 zero concentration points (no compound) which were averaged and subtracted from the peptide concentration injection as DMSO control responses. Binding data acquired from the reference surface (matrix binding control) were subtracted from the binding data for hGranzyme B surface on the chip to determine specific binding. Next, the association phase data were solvent corrected to account for any signal fluctuation throughout the experiment due to subtle DMSO concentration differences. Corrected response data were analyzed using the Biacore 8k+ Evaluation Software Version 3.0 according to the manufacturer. SPR data for representative compounds of the disclosure are found in Table 8.

human Granzyme B (hGranzyme B), sequence (P10144 21-247): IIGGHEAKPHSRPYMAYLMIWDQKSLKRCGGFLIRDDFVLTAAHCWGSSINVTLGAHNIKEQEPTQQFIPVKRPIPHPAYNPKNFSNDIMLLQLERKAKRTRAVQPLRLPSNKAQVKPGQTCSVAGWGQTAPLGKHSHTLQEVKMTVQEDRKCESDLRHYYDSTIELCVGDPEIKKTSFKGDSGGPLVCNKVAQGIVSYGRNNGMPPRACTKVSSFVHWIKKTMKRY

Kd | SMILES
4.7 nM | CC(C)[C@@H]1NC(=O)[C@H](CC(=O)O)NC(=O)[C@H](Cc2ccc(O)cc2)NC(=O)[C@H](Cc2ccc(O)cc2)NC(=O)[C@H](Cc2ccccc2)N(C)C(=O)[C@H](Cc2ccccc2)N(C)C(=O)[C@H](Cc2ccccc2)NC(=O)CSC[C@@H](C(=O)NCC(N)=O)NC(=O)[C@H](Cc2c[nH]cn2)NC(=O)[C@H](Cc2ccccc2)N(C)C(=O)[C@H](Cc2ccc(O)cc2)NC(=O)[C@H](C(C)C)NC(=O)[C@H](CC(=O)O)NC(=O)[C@H](C)NC(=O)[C@H](CC(=O)O)NC1=O [Compound 16a, *F.NMeF.NMeF.Y.Y.D.V.D.A.D.V.Y.NMeF.H.*C.G-NH2] ({CH2CO}-F[NMeF][NMeF]YYDVDADVY[NMeF]HCG-NH2; thioether N-15)
288 nM | CC(C)[C@@H]1NC(=O)[C@H](CC(=O)O)NC(=O)[C@H](C)NC(=O)[C@H](CC(=O)O)NC(=O)[C@H](Cc2ccc(O)cc2)NC(=O)[C@H](Cc2ccc(O)cc2)NC(=O)[C@H](Cc2ccccc2)N(C)C(=O)[C@H](Cc2ccccc2)N(C)C(=O)[C@H](Cc2ccccc2)NC(=O)CSC[C@@H](C(=O)NCC(N)=O)NC(=O)[C@H](Cc2c[nH]cn2)NC(=O)[C@H](Cc2ccccc2)N(C)C(=O)[C@H](Cc2ccc(O)cc2)NC(=O)[C@H](C(C)C)NC(=O)[C@H](CC(=O)O)NC1=O [Compound 20a, *F.NMeF.NMeF.Y.Y.D.A.D.V.D.V.Y.NMeF.H.*C.G-NH2] ({CH2CO}-F[NMeF][NMeF]YYDADVDVY[NMeF]HCG-NH2; thioether N-15)

Continued, molecule first:

SMILES | Kd
CC(C)[C@@H]1NC(=O)[C@H](CC(=O)O)NC(=O)[C@H](C(C)C)NC(=O)[C@H](CC(=O)O)NC(=O)[C@H](C(C)C)NC(=O)[C@H](CC(=O)O)NC(=O)[C@H](Cc2ccc(O)cc2)NC(=O)[C@H](Cc2ccc(O)cc2)NC(=O)[C@H](Cc2ccccc2)N(C)C(=O)[C@H](Cc2ccccc2)N(C)C(=O)[C@H](Cc2ccccc2)NC(=O)CSC[C@@H](C(=O)NCC(N)=O)NC(=O)[C@H](Cc2c[nH]cn2)NC(=O)[C@H](Cc2ccccc2)N(C)C(=O)[C@H](C)NC1=O [Compound 21a, *F.NMeF.NMeF.Y.Y.D.V.D.V.D.V.A.NMeF.H.*C.G-NH2] ({CH2CO}-F[NMeF][NMeF]YYDVDVDVA[NMeF]HCG-NH2; thioether N-15) | 453 nM
CC(C)[C@@H]1NC(=O)[C@H](CC(=O)O)NC(=O)[C@H](Cc2ccc(O)cc2)NC(=O)[C@H](Cc2ccc(O)cc2)NC(=O)[C@H](C)NC(=O)[C@H](Cc2ccccc2)N(C)C(=O)[C@H](Cc2ccccc2)NC(=O)CSC[C@@H](C(=O)NCC(N)=O)NC(=O)[C@H](Cc2c[nH]cn2)NC(=O)[C@H](Cc2ccccc2)N(C)C(=O)[C@H](Cc2ccc(O)cc2)NC(=O)[C@H](C(C)C)NC(=O)[C@H](CC(=O)O)NC(=O)[C@H](C(C)C)NC(=O)[C@H](CC(=O)O)NC1=O [Compound 18a, *F.NMeF.A.Y.Y.D.V.D.V.D.V.Y.NMeF.H.*C.G-NH2] ({CH2CO}-F[NMeF]AYYDVDVDVY[NMeF]HCG-NH2; thioether N-15) | 68 nM
CCC(=O)NCCCC[C@H](NC(=O)CNC(=O)CNC(=O)[C@@H]1CSCC(=O)N[C@@H](Cc2ccccc2)C(=O)N(C)[C@@H](Cc2ccccc2)C(=O)N(C)[C@@H](Cc2ccccc2)C(=O)N[C@@H](Cc2ccc(O)cc2)C(=O)N[C@@H](Cc2ccc(O)cc2)C(=O)N[C@@H](CC(=O)O)C(=O)N[C@@H](C(C)C)C(=O)N[C@@H](CC(=O)O)C(=O)N[C@@H](C(C)C)C(=O)N[C@@H](CC(=O)O)C(=O)N[C@@H](C(C)C)C(=O)N[C@@H](Cc2ccc(O)cc2)C(=O)N(C)[C@@H](Cc2ccccc2)C(=O)N[C@@H](Cc2c[nH]cn2)C(=O)N1)C(N)=O [Compound 4a, *F.NMeF.NMeF.Y.Y.D.V.D.V.D.V.Y.NMeF.H.*C.G.G.K(Prop)-NH2] ({CH2CO}-F[NMeF][NMeF]YYDVDVDVY[NMeF]HCGGK(Propionyl)-NH2; thioether N-15) | 1.1 nM
